Laboratory results published in US20240285631A1, “METHODS OF TREATING VASCULAR MALFORMATIONS” (priority 2023, published 2024).
“Also recorded” adds a separate entry of the source.

Assays:
[1] = system: AVMs induced by BMP9/10 blocking antibodies; test: Retinal vasculature analysis in BMP9/10 blocking antibody mouse model of HHT; format: in vivo; conditions: BMP9/10 Abs P2 and P4
[2] = system: vascular anomalies in lungs and intestinal tracts of anti-BMP9/10-treated pups; test: Blue latex dye vascular perfusion of lungs and duodenum in BMP9/10 Abs-treated pups; format: in vivo, mouse; conditions: P7, BMP9/10 Abs + CDK4/6i
Source text: Vascular perfusion assessed using blue latex dye in lungs (FIGS. 10C-D), duodenum (FIGS. 10E-F) and brain (FIGS. 10G-H) from control, BMP9/10 Abs-treated, BMP9/10 Abs- and CDK4/6i-treated P7 animals. Lung samples have been clarified. Quantifications of intrapulmonary artery diameter (FIG. 10D) and intestinal capillary diameter (FIG. 10F). Red arrows indicate intestinal capillaries (N=3 to 7 animals/group. Data are mean±SEM, one-way ANOVA with Holm-Šidàk's multiple comparison test, **p≤0.01, *p≤0.05, ns p>0.05). […] We then analyzed the effects of BMP9/10 antibodies and CDK4/6i treatment on lungs, brains, and intestinal tracts, which are commonly affected by vascular malformations in HHT patients. To visualize vascular anomalies in these tissues, we performed intracardiac injections of blue latex silicon dye in P7 control, and anti-BMP9/10-treated pups, with or without CDK4/6i treatment following the dosing protocol as shown in FIG. 2A. […] P7 pups were deeply anesthetized with isoflurane using a nose cone and a thoracotomy was performed to expose the heart. For brain and gastrointestinal vasculature perfusions, the right atrium was cut and an insulin syringe (27 G) pre-filled with 1 ml of blue latex (VWR 470024-612) was inserted in the apex of the left ventricle to perfuse approximately 600 ml of latex. […]

[3] = system: retinal ECs of BMP9/10 Abs-treated Fucci2 animals; test: Endothelial cell cycle state in BMP9/10 Abs-treated Fucci2 reporter pups; format: in vivo, mouse; conditions: BMP9/10 Abs + CDK4/6i, P7 Fucci2
Source text: All animal protocols and procedures were approved by the University of Virginia Animal Care and Use Committee and complied with all ethical regulations. Cdh5Cre^ERT21Rha^43 and Alk1^flox/flox were gifted from Drs. Ralf Adams and Paul Oh, respectively. R26p-Fucci2 (Fucci2) (Accession #CDB0203T)^44 and C57bl/6 mice were purchased from Riken and Jax, respectively. Cdh5Cre^ERT2 mice were crossed with Alk1^flox/flox mice (6-8-week-old) to generate Alk1EC^iKO pups. Cre activity in Alk1EC^iKO was induced in pups at P3 via a single intraperitoneal (i.p.) injection of Tamoxifen (Tx; Sigma T5648, […] of 4 mg/ml, resuspended in 10% ethanol and 90% corn oil). Alk1^flox/flox littermates were used as controls. Alk1EC^iKO mice were crossed with Fucci2 mice to generate Alk1EC^iKO-Fucci2 pups.

[4] = system: Retinoblastoma protein (Rb); test: Western Blot of Rb Ser 807/811 phosphorylation in HUVECs; format: cell-based, human; conditions: 24 h
Method: FIG. 11B illustrates Western Blot analysis of Rb Ser 807/811 phosphorylation in response to Palbociclib (CDK4/6i) (24 h) in HUVECs.
Primary Human Umbilical Vein Endothelial Cells (HUVECs) were purchased from Lonza (C2519AS) and cultured in EGM™2-Bulletkit™ medium (CC-3156 & CC-4176, Lonza). For VEGF-A- or BMP9-induced signaling response in HUVECs, cells (70% confluent) were treated with Palbociclib (3 mg/ml, CDK4/6i) for 12 h in EGM-2 medium prior to starvation overnight in EMB-2 media (CC-3162 Lonza) supplemented with 0.1% FBS and Palbociclib (3 mg/ml). Cells were stimulated with either VEGF-A (25 ng/ml for 15 min) or BMP9 (1 ng/ml for 2 h) and harvested for Western Blot analysis.
Cells were lysed in RIPA buffer (Abcam, ab206996) and equal amounts of proteins were separated on 4-15% gradient Criterion precast gels (Bio-Rad 567-1084). Proteins were then transferred onto nitrocellulose membranes (Bio-Rad). Western Blots were developed with chemiluminescence HRP substrate (Radiance plus, Azure Biosystems AC2103) on a digital image analyzer, Azure Imager c300.

[5] = system: retinal arteries of anti-BMP9/10-treated animals; test: Arteriovenous identity immunostaining (JAGGED1, aSMA, ENDOMUCIN) of retinal flat-mounts, BMP9/10 Abs model; format: in vivo, mouse; conditions: P7
Source text: FIG. 12A illustrates the timeline used for BMP9/10 Abs and CDK4/6i treatments in C57bl/6 pups. FIGS. 12B-F JAGGED1 (green) and IB4 (white) in (FIG. 12B), aSMA (green) and IB4 (white) staining in (FIG. 12D) and ENDOMUCIN (green) and IB4 (white) in (FIG. 12F) of retinal flat-mounts from control, BMP9/10 Abs-treated, BMP9/10 Abs- and CDK4/6i-treated P7 C57bl/6 animals. (A: artery; V: vein; white arrow heads: AVMs). Quantification of JAGGED1 fluorescence intensity in retinal arterial ECs (FIG. 12C), of aSMA arterial coverage (FIG. 12E) and ENDOMUCIN in retinal arteries (FIG. 12G) (N=4 animals/group, 10 to 14 region of interest analyzed/group. Data are mean±SEM, one-way ANOVA with Holm-Sidak's multiple comparison test, ns p>0.05; ***p<0.01). Scale bars: […].
Finally, we assessed the effects of Palbociclib treatment on arteriovenous identity in anti-BMP9/10-treated animals following the dosing protocol shown in FIG. 12A. […] Finally, ENDOMUCIN, which is enriched in veins and capillaries in control retinas, was ectopically expressed in arteries and AV shunts in the retinal vasculature of anti-BMP9/10-treated animals, compared to controls (FIGS. 12F and 12G).
Eyes from P7 pups were pre-fixed in 4% PFA for 20 min at room temperature (RT). The retinas were dissected out and permeabilized for 30 min at RT in 0.5% Triton X-100 and then incubated with antibodies in retina buffer (1% FBS, 3% BSA and 0.5% Triton X-100 in PBS1x) overnight at 4° C. Retinas were washed with PBS1X and incubated with secondary antibodies in retina buffer for 2 h at RT. Retinas were washed with PBS1X, mounted with DAKO mounting medium (DAKO) and imaged using confocal microscopy (LEICA SP8 and LASX software). Quantification of vascular progression, density, AVM numbers and vessel diameters in the retinal vasculature were performed with Image J software.

[6] = system: retinal ECs in veins and arteries; test: Flow-mediated EC polarization (Golgi orientation) in retinal vessels, BMP9/10 Abs model; format: in vivo, mouse; conditions: BMP9/10 Abs + CDK4/6i
Source text: FIG. 3C illustrates the polarity axis of each cell was defined as the angle between the direction of blood flow and the cell polarity axis, defined by a vector drawn from the center of the cell nucleus to the center of the Golgi apparatus. FIG. 3D illustrates EC polarization in arteries and veins of control, BMP9/10 Abs-treated, and BMP9/10 Abs- and CDK4/6i-treated animals. EC nuclei are immunostained with anti-ERG1,2,3 and Golgi apparatus with anti-GM130; ECs are labelled with IB4. […] FIG. 3E illustrates angular histograms showing the distribution of polarization angles of retinal ECs in arteries and veins from control, BMP9/10 Abs-treated, and BMP9/10 Abs- and CDK4/6i-treated P6 animals (N=6 to 8 retinas). FIG. 3F illustrates polarity index dot plots of ECs from arteries (A) and veins (V) from control, BMP9/10 Abs-treated, and BMP9/10 Abs- and CDK4/6i-treated P6 animals (N=6 to 8 retinas. Data are mean±SEM **p≤0.01, ns p>0.05). Two-Way ANOVA for independent measures was used. p≤0.05 was considered statistically significant. […] To analyze the orientation of the Golgi toward the direction of the flow in retinal vessels, we measured the angle formed by the vector nucleus/Golgi in each EC and the predicted blood flow vector in the vessel (as depicted in FIG. 3C). We also quantified the EC polarization using a polarity index^22 ranging from 1 (highly polarized) to 0 (random distribution).

[7] = system: HUVECs; test: Agilent Seahorse mitochondrial stress test in HUVECs; format: cell-based, human; design: dose or concentration left out as unconfirmed; conditions: HUVECs pretreated with Palbociclib, vs control cells
Source text: FIG. 4C illustrates representative traces of oxygen consumption rate (OCR) measured by Seahorse assay of control vs. CDK4/6i-treated HUVECs in response to oligomycin (ATP synthase inhibitor), BAM15 (mitochondrial uncoupler) and Antimycin A/Rotenone (mitochondrial respiratory chain complex III and I inhibitors) (N=6 independent experiments, Data are mean±SEM **p≤0.01, ns p>0.05). Two-way ANOVA for independent measures with Bonferonni's correction for statistical analysis. p<0.05 was considered statistically significant. The normality and homogeneity of variances assumptions were tested using Shapiro-Wilk test (p>0.05) and Mauchly's test of sphericity respectively. Quantification of mitochondrial activity expressed as basal OCR (FIG. 4D) and respiratory capacity (FIG. 4E) in control vs. CDK4/6i-treated HUVECs. […]
HUVECs (70% confluent) were treated with Palbociclib (3 mg/ml) for 12 h in EGM™2-Bulletkit™ medium (CC-3156 & CC-4176, Lonza) prior to seeding onto a Seahorse 24-well tissue culture plate (Agilent Technologies) in EMB-2 media (CC-3162 Lonza) supplemented with 0.1% FBS and Palbociclib (3 mg/ml). […] Oxygen consumption rate (OCR) was measured using a Seahorse XF24 Flux Analyzer (Agilent Technologies). […] Basal respiration was calculated by subtracting the average of the first three measurements by the average of the post-Antimycin A & Rotenone measurements. […]

[8] = system: brain vascular anomalies in adult Alk1 mutant animals; test: Brain vasculature of adult Alk1 mutant animals (HHT model); format: in vivo, mouse; conditions: 3 doses 120 mg/kg oral gavage at day 7, 9 and 11 after tamoxifen, 3 weeks after induction
Source text: Euthanized animals have been perfused with colored reagent to visualize the blood vessels.

[9] = system: retinal vascular development of control pups; test: CDK4/6i treatment alone in control C57BL/6 pups, retinal vasculature; format: in vivo, mouse; conditions: P7 control pups, no BMP9/10 Abs
Source text: FIGS. 10A and 10B illustrate the timeline used for CDK4/6i treatment alone in C57BL/6 pups and representative images showing retinal vasculature of P7 animals labelled with IB4 (N=3 to 4 animals/group). Vascular perfusion assessed using blue latex dye in lungs (FIGS. 10C-D), duodenum (FIGS. 10E-F) and brain (FIGS. 10G-H) from control, BMP9/10 Abs-treated, BMP9/10 Abs- and CDK4/6i-treated P7 animals. Lung samples have been clarified. Quantifications of intrapulmonary artery diameter (FIG. 10D) and intestinal capillary diameter (FIG. 10F). Red arrows indicate intestinal capillaries (N=3 to 7 animals/group. Data are mean±SEM, one-way ANOVA with Holm-Šidàk's multiple comparison test, **p≤0.01, *p≤0.05, ns p>0.05). Quantification of left middle cerebral artery (MCA) and basilar artery (BA) diameter (FIG. 10H). (N=5 to 9 animals/group. Data are mean±SEM, one-way ANOVA with Holm-Sidak's multiple comparison test, ns p>0.05). Scale bars: (FIGS. 10C and 10G): 2 mm, (E): 1 mm.
Thus, to test whether the use of pharmacological cell cycle modulators could prevent the development of AVMs in a murine model of HHT, we used Palbociclib, a CDK4 and CDK6 inhibitor (CDK4/6i) that blocks the transition from G1 to S state^8. Pups were injected at P2 and P4 with BMP9/10 antibodies, followed by Palbociclib treatment starting at P4, then at P5 and P6 (FIG. 2A).

SMILES: CC(=O)c1c(C)c2cnc(Nc3ccc(N4CCNCC4)cn3)nc2n(C2CCCC2)c1=O [Palbociclib, 6-acetyl-8-cyclopentyl-5-methyl-2-[5-(1-piperazinyl)pyridine-2-ylamino]pyrido[2,3-d]pyrimidin-7(8H)-one]
- arterial vessel diameter ([1]; CDK4/6i P4-P6, P7): not arterial vessel diameters
- retinal vascular density ([1]; CDK4/6i P4-P6, P7): less hyperdense retinal vascular plexi
- retinal vascular progression ([1]; CDK4/6i P4-P6, P7): normalized retinal vascular progression
- venous vessel diameter ([1]; CDK4/6i P4-P6, P7): normalized
- AV shunt number per retina ([1]; CDK4/6i oral gavage 120 mg/kg/d P4, P5, P6, retinas at P7, vs BMP9/10 Abs only): fewer AV shunts
- vasodilation of small capillaries perfusing the duodenum ([2]; duodenum): not prevented by CDK4/6i treatment
- lung vascular anomalies and intrapulmonary artery diameter ([2]; lungs): significantly less vascular anomalies and intrapulmonary microvasculature vasodilation
- EC cell cycle state (early G1, late G1, S/G2/M) in veins, arteries and capillaries [3]: predominantly in late G1 state
- vascular malformations in retina of Fucci2 pups [3]: vascular malformations were absent
- Rb phosphorylation [4]: induced hypo-phosphorylation of the Retinoblastoma protein (Rb)
- JAG1 protein expression in retinal arterial ECs ([5]; BMP9/10 Abs + CDK4/6i vs BMP9/10 Abs only): increased in arterial ECs
- ectopic arterial expression of ENDOMUCIN ([5]; BMP9/10 Abs + CDK4/6i): did not prevent the arterial expression of ENDOMUCIN
- smooth muscle cell (aSMA) coverage of retinal arteries ([5]; BMP9/10 Abs + CDK4/6i): prevented the loss of SMC coverage on arteries
- polarity of retinal ECs toward blood flow [6]: oriented similarly to controls
- mitochondrial basal respiration (basal OCR) [7]: significantly lower
- respiratory capacity (OCR) [7]: significantly lower
- brain vascular anomalies in adult Alk1 mutant animals [8]: regressed anomalies observed in the brain vasculature; also recorded: regressed brain vascular anomalies
- retinal vascular development under CDK4/6i treatment by itself [9]: did not impair retinal vascular development
